Assay results published in patent US20060130266A1, “Dermal drug delivery system” (priority 2004, published 2006).
Marks after values point to notes of the source that are not given here.

Columns and labels:
[1] = octanol/water; cited from earlier work
[2] = In vitro skin permeation, Franz cell infinite dose study (optimisation studies with MP, BP, CF); conditions: BP; for EF enhancement factor: flux vs untreated skin
[3] = Table 4b, brush A 450 Nm^−2, 20 s, 80 rpm
[4] = Table 4b, brush A 450 Nm^−2, 45 s, 80 rpm
[5] = Table 4b, brush A 750 Nm^−2, 45 s, 80 rpm
[6] = Table 4b, brush A 1200 Nm^−2, 45 s, 80 rpm
[7] = Table 5c, EtoH/PBS (50% ethanol donor solution)
[8] = Table 5c, brush A 450 Nm^−2, 45 s
[9] = Table 5c, brush B 300 Nm^−2, 15 s
[10] = Table 5c, brush B 300 Nm^−2, 25 s
[11] = Table 5c, brush B 450 Nm^−2, 15 s

Question: For `CCCCOC(=O)c1ccc(O)cc1` [BP, Butyl paraben], which “Log P (o/w)” value [1] is on record?
Answer: 3.57

Question: And the JS flux [2, 3]?
Answer: 6.60 ± 0.49* 10^−3 μg/cm/s

Question: What about the KP permeability coefficient [2, 3] of the same compound?
Answer: 3.30 ± 0.25 10^−5 cm/s

Question: What about the TL lag time [2, 3] of the same compound?
Answer: 37.10 ± 2.26 min

Question: And the EF enhancement factor [2, 3]?
Answer: 1.74

Question: What about the JS flux [2, 4] of the same compound?
Answer: 7.50 ± 0.75* 10^−3 μg/cm/s

Question: What about the KP permeability coefficient [2, 4] of the same compound?
Answer: 3.75 ± 0.37 10^−5 cm/s

Question: What about the TL lag time [2, 4] of the same compound?
Answer: 25.22 ± 2.17 min

Question: And the EF enhancement factor [2, 4]?
Answer: 1.97

Question: What about the JS flux [2, 5] of the same compound?
Answer: 8.26 ± 0.89* 10^−3 μg/cm/s

Question: And the KP permeability coefficient [2, 5]?
Answer: 4.13 ± 0.45 10^−5 cm/s

Question: What about the TL lag time [2, 5] of the same compound?
Answer: 26.34 ± 1.48 min

Question: What about the EF enhancement factor [2, 5] of the same compound?
Answer: 2.17

Question: What about the JS flux [2, 6] of the same compound?
Answer: 8.62 ± 1.05* 10^−3 μg/cm/s

Question: What about the KP permeability coefficient [2, 6] of the same compound?
Answer: 4.31 ± 0.52 10^−5 cm/s

Question: And the TL lag time [2, 6]?
Answer: 26.39 ± 1.30 min

Question: And the EF enhancement factor [2, 6]?
Answer: 2.26

Question: What about the JS flux ([2]; Table 4b, delipidised skin) of the same compound?
Answer: 15.95 ± 1.55* 10^−3 μg/cm/s

Question: What about the KP permeability coefficient ([2]; Table 4b, delipidised skin) of the same compound?
Answer: 7.98 ± 0.78 10^−5 cm/s

Question: And the TL lag time ([2]; Table 4b, delipidised skin)?
Answer: 18.58 ± 3 min

Question: What about the EF enhancement factor ([2]; Table 4b, delipidised skin) of the same compound?
Answer: 4.20

Question: What about the KP permeability coefficient ([2]; Table 4b, untreated skin) of the same compound?
Answer: 1.90 ± 0.23 10^−5 cm/s

Question: And the TL lag time ([2]; Table 4b, untreated skin)?
Answer: 33.47 ± 8.79 min

Question: And the KP permeability coefficient [2, 7]?
Answer: 9.24 ± 0.80 10^−5 cm/s

Question: What about the TL lag time [2, 7] of the same compound?
Answer: 26.43 ± 5.05 min

Question: What about the EF enhancement factor ([2]; Table 5c, EtoH/PBS) of the same compound?
Answer: 3.75

Question: And the JS flux [2, 8]?
Answer: 8.38 ± 1.09* 10^−4 μg/cm/s

Question: And the KP permeability coefficient [2, 8]?
Answer: 4.19 ± 0.54 10^−5 cm/s

Question: And the TL lag time [2, 8]?
Answer: 24.51 ± 5.50 min

Question: What about the EF enhancement factor [2, 8] of the same compound?
Answer: 1.69

Question: And the JS flux [2, 9]?
Answer: 6.16 ± 0.89* 10^−4 μg/cm/s

Question: And the KP permeability coefficient [2, 9]?
Answer: 3.08 ± 0.44 10^−5 cm/s

Question: What about the TL lag time [2, 9] of the same compound?
Answer: 22.65 ± 3.22 min

Question: And the EF enhancement factor [2, 9]?
Answer: 1.25

Question: What about the JS flux [2, 10] of the same compound?
Answer: 10.47 ± 0.96* 10^−4 μg/cm/s

Question: What about the KP permeability coefficient [2, 10] of the same compound?
Answer: 5.23 ± 0.48 10^−5 cm/s

Question: What about the TL lag time [2, 10] of the same compound?
Answer: 23.06 ± 2.19 min

Question: And the EF enhancement factor [2, 10]?
Answer: 2.12

Question: What about the KP permeability coefficient [2, 11] of the same compound?
Answer: 6.34 ± 1.03 10^−5 cm/s

Question: What about the TL lag time [2, 11] of the same compound?
Answer: 14.55 ± 5.18 min

Question: And the EF enhancement factor [2, 11]?
Answer: 2.57

Question: And the KP permeability coefficient ([2]; Table 5c, delipidised skin)?
Answer: 10.27 ± 1.43 10^−5 cm/s

Question: What about the TL lag time ([2]; Table 5c, delipidised skin) of the same compound?
Answer: 8.17 ± 5.41 min

Question: What about the EF enhancement factor ([2]; Table 5c, delipidised skin) of the same compound?
Answer: 4.16

Question: What about the KP permeability coefficient ([2]; Table 5c, tapestripped skin) of the same compound?
Answer: 7.80 ± 1.84 10^−5 cm/s

Question: And the TL lag time ([2]; Table 5c, tapestripped skin)?
Answer: 34.78 ± 4.44 min

Question: What about the EF enhancement factor ([2]; Table 5c, tapestripped skin) of the same compound?
Answer: 3.16

Question: And the KP permeability coefficient ([2]; Table 5c, untreated skin)?
Answer: 2.47 ± 0.11 10^−5 cm/s

Question: And the TL lag time ([2]; Table 5c, untreated skin)?
Answer: 35.84 ± 1.98 min
